Assay results: PubChem BioAssay AID1963853 (Molecular Pharmacology Branch, DTP, NCI, 2024)

Tested on: 266295-075-R-J1-PDC spheroid viability
Assay: Anticancer human tumor 266295-075-R-J1-PDC patient-derived head and neck squamous carcinoma cell line growth inhibition [POLQ]
Conditions: spheroids with HUVEC and MSC; for IC50: curve of first compound; for viability, T/C: stronger effect = lower value
How it was run: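 Complex spheroid viability model combining PDC tumour cells with endothelial (HUVEC) and MSC stromal cells. Novobiocin, ART-558 or RP6685 were tested singly and in combination with standard and investigational anticancer drugs. Each was titrated in half-log steps from near clinical Cmax, or from 10 microM where Cmax was unknown.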

[1] = second compound 0.0316 µM, first compound 0.0316 µM
[2] = second compound 0.0316 µM, first compound 0.1 µM
[3] = second compound 0.0316 µM, first compound 0.316 µM
[4] = second compound 0.0316 µM, first compound 1 µM
[5] = second compound 0.0316 µM, first compound 3.16 µM
[6] = second compound 0.0316 µM, first compound 10 µM
[7] = second compound 0.1 µM, first compound 0.0316 µM
[8] = second compound 0.1 µM, first compound 0.1 µM
[9] = second compound 0.1 µM, first compound 0.316 µM
[10] = second compound 0.1 µM, first compound 1 µM
[11] = second compound 0.1 µM, first compound 3.16 µM
[12] = second compound 0.1 µM, first compound 10 µM
[13] = second compound 0.316 µM, first compound 0.0316 µM
[14] = second compound 0.316 µM, first compound 0.1 µM
[15] = second compound 0.316 µM, first compound 0.316 µM
[16] = second compound 0.316 µM, first compound 1 µM
[17] = second compound 0.316 µM, first compound 3.16 µM
[18] = second compound 0.316 µM, first compound 10 µM
[19] = second compound 1 µM, first compound 0.0316 µM
[20] = second compound 1 µM, first compound 0.1 µM
[21] = second compound 1 µM, first compound 0.316 µM
[22] = second compound 1 µM, first compound 1 µM
[23] = second compound 1 µM, first compound 3.16 µM
[24] = second compound 1 µM, first compound 10 µM
[25] = second compound 3.16 µM, first compound 0.0316 µM
[26] = second compound 3.16 µM, first compound 0.1 µM
[27] = second compound 3.16 µM, first compound 0.316 µM
[28] = second compound 3.16 µM, first compound 1 µM
[29] = second compound 3.16 µM, first compound 3.16 µM
[30] = second compound 3.16 µM, first compound 10 µM
[31] = second compound 10 µM, first compound 0.0316 µM
[32] = second compound 10 µM, first compound 0.1 µM
[33] = second compound 10 µM, first compound 0.316 µM
[34] = second compound 10 µM, first compound 1 µM
[35] = second compound 10 µM, first compound 3.16 µM
[36] = second compound 10 µM, first compound 10 µM
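Note: spheroids exposed to compounds for seven days before readout.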

## CCCS(=O)(=O)Nc1ccc(F)c(C(=O)c2c[nH]c3ncc(-c4ccc(Cl)cc4)cc23)c1F + Nc1ccc(C#CCN(C(=O)Cc2ncc(C(F)(F)F)cc2C(F)(F)F)c2ccc(F)cc2)nn1
Second compound 0.0316 µM
  IC50: > 10 µM
Second compound 0.1 µM
  IC50: > 10 µM
Second compound 0.316 µM
  IC50: > 10 µM
Second compound 1 µM
  IC50: > 10 µM
Second compound 3.16 µM
  IC50: > 10 µM
Second compound 10 µM
  IC50: > 10 µM
[1]
  viability, T/C: 97.9%
[2]
  viability, T/C: 115%
[3]
  viability, T/C: 115%
[4]
  viability, T/C: 102%
[5]
  viability, T/C: 158%
[6]
  viability, T/C: 160%
[7]
  viability, T/C: 101%
[8]
  viability, T/C: 105%
[9]
  viability, T/C: 99.2%
[10]
  viability, T/C: 116%
[11]
  viability, T/C: 156%
[12]
  viability, T/C: 145%
[13]
  viability, T/C: 102%
[14]
  viability, T/C: 103%
[15]
  viability, T/C: 82.3%
[16]
  viability, T/C: 105%
[17]
  viability, T/C: 143%
[18]
  viability, T/C: 131%
[19]
  viability, T/C: 122%
[20]
  viability, T/C: 92.5%
[21]
  viability, T/C: 115%
[22]
  viability, T/C: 93.8%
[23]
  viability, T/C: 146%
[24]
  viability, T/C: 145%
[25]
  viability, T/C: 84.8%
[26]
  viability, T/C: 135%
[27]
  viability, T/C: 121%
[28]
  viability, T/C: 109%
[29]
  viability, T/C: 142%
[30]
  viability, T/C: 160%
[31]
  viability, T/C: 119%
[32]
  viability, T/C: 104%
[33]
  viability, T/C: 104%
[34]
  viability, T/C: 119%
[35]
  viability, T/C: 143%
[36]
  viability, T/C: 171%

## CCCS(=O)(=O)Nc1ccc(F)c(C(=O)c2c[nH]c3ncc(-c4ccc(Cl)cc4)cc23)c1F + Cc1cccc(N(C)C(=O)C2C(O)CCN2c2nc(C)cc(C(F)(F)F)c2C#N)c1
Second compound 0.0316 µM
  IC50: > 10 µM
Second compound 0.1 µM
  IC50: > 10 µM
Second compound 0.316 µM
  IC50: > 10 µM
Second compound 1 µM
  IC50: > 10 µM
Second compound 3.16 µM
  IC50: > 10 µM
Second compound 10 µM
  IC50: > 10 µM
[1]
  viability, T/C: 108%
[2]
  viability, T/C: 97.7%
[3]
  viability, T/C: 122%
[4]
  viability, T/C: 161%
[5]
  viability, T/C: 150%
[6]
  viability, T/C: 126%
[7]
  viability, T/C: 127%
[8]
  viability, T/C: 81.3%
[9]
  viability, T/C: 92.8%
[10]
  viability, T/C: 126%
[11]
  viability, T/C: 187%
[12]
  viability, T/C: 142%
[13]
  viability, T/C: 95.5%
[14]
  viability, T/C: 93%
[15]
  viability, T/C: 98.1%
[16]
  viability, T/C: 134%
[17]
  viability, T/C: 171%
[18]
  viability, T/C: 139%
[19]
  viability, T/C: 118%
[20]
  viability, T/C: 76.5%
[21]
  viability, T/C: 95.5%
[22]
  viability, T/C: 132%
[23]
  viability, T/C: 158%
[24]
  viability, T/C: 142%
[25]
  viability, T/C: 106%
[26]
  viability, T/C: 100%
[27]
  viability, T/C: 96.6%
[28]
  viability, T/C: 111%
[29]
  viability, T/C: 155%
[30]
  viability, T/C: 132%
[31]
  viability, T/C: 96.3%
[32]
  viability, T/C: 137%
[33]
  viability, T/C: 113%
[34]
  viability, T/C: 111%
[35]
  viability, T/C: 187%
[36]
  viability, T/C: 134%

## COc1cccc2c1C(=O)c1c(O)c3c(c(O)c1C2=O)CC(O)(C(=O)CO)CC3OC1CC(N)C(O)C(C)O1 (stereo not drawn) + Cc1cccc(N(C)C(=O)C2C(O)CCN2c2nc(C)cc(C(F)(F)F)c2C#N)c1
Second compound 0.0316 µM
  IC50: 1.58 µM
Second compound 0.1 µM
  IC50: 1.6 µM
Second compound 0.316 µM
  IC50: 1.35 µM
Second compound 1 µM
  IC50: 1.35 µM
Second compound 3.16 µM
  IC50: 1.12 µM
Second compound 10 µM
  IC50: 0.838 µM
[1]
  viability, T/C: 69.3%
[2]
  viability, T/C: 74.4%
[3]
  viability, T/C: 65.8%
[4]
  viability, T/C: 59.6%
[5]
  viability, T/C: 36.1%
[6]
  viability, T/C: 1.6%
[7]
  viability, T/C: 79.5%
[8]
  viability, T/C: 81.9%
[9]
  viability, T/C: 61.6%
[10]
  viability, T/C: 60.2%
[11]
  viability, T/C: 40%
[12]
  viability, T/C: 1.95%
[13]
  viability, T/C: 84.5%
[14]
  viability, T/C: 76%
[15]
  viability, T/C: 59.8%
[16]
  viability, T/C: 60.3%
[17]
  viability, T/C: 36.1%
[18]
  viability, T/C: 2.38%
[19]
  viability, T/C: 85.1%
[20]
  viability, T/C: 90.8%
[21]
  viability, T/C: 79.4%
[22]
  viability, T/C: 55.7%
[23]
  viability, T/C: 28.3%
[24]
  viability, T/C: 1.59%
[25]
  viability, T/C: 81.1%
[26]
  viability, T/C: 81.1%
[27]
  viability, T/C: 61.6%
[28]
  viability, T/C: 60.3%
[29]
  viability, T/C: 19.1%
[30]
  viability, T/C: 1.26%
[31]
  viability, T/C: 90.9%
[32]
  viability, T/C: 84.6%
[33]
  viability, T/C: 67.7%
[34]
  viability, T/C: 52.3%
[35]
  viability, T/C: 9.35%
[36]
  viability, T/C: 1.42%

## COc1cc2cc(C(=O)CCC(=O)O)sc2cc1OC + Cc1cccc(N(C)C(=O)C2C(O)CCN2c2nc(C)cc(C(F)(F)F)c2C#N)c1
Second compound 0.0316 µM
  IC50: > 10 µM
Second compound 0.1 µM
  IC50: > 10 µM
Second compound 0.316 µM
  IC50: > 10 µM
Second compound 1 µM
  IC50: > 10 µM
Second compound 3.16 µM
  IC50: > 10 µM
Second compound 10 µM
  IC50: > 10 µM
[1]
  viability, T/C: 118%
[2]
  viability, T/C: 112%
[3]
  viability, T/C: 90%
[4]
  viability, T/C: 117%
[5]
  viability, T/C: 95.7%
[6]
  viability, T/C: 96%
[7]
  viability, T/C: 113%
[8]
  viability, T/C: 103%
[9]
  viability, T/C: 82.9%
[10]
  viability, T/C: 111%
[11]
  viability, T/C: 115%
[12]
  viability, T/C: 115%
[13]
  viability, T/C: 134%
[14]
  viability, T/C: 112%
[15]
  viability, T/C: 92.6%
[16]
  viability, T/C: 114%
[17]
  viability, T/C: 87%
[18]
  viability, T/C: 84.8%
[19]
  viability, T/C: 106%
[20]
  viability, T/C: 87.2%
[21]
  viability, T/C: 126%
[22]
  viability, T/C: 104%
[23]
  viability, T/C: 110%
[24]
  viability, T/C: 80.3%
[25]
  viability, T/C: 101%
[26]
  viability, T/C: 112%
[27]
  viability, T/C: 116%
[28]
  viability, T/C: 109%
[29]
  viability, T/C: 98.2%
[30]
  viability, T/C: 91.3%
[31]
  viability, T/C: 97.2%
[32]
  viability, T/C: 109%
[33]
  viability, T/C: 102%
[34]
  viability, T/C: 104%
[35]
  viability, T/C: 109%
[36]
  viability, T/C: 89.2%
